These are literature values, as cited in patent US20160346267A1, “Pharmaceutical Composition Comprising Apixaban” (SANDOZ AG, priority 2014, published 2016).

For the molecule `COc1ccc(-n2nc(C(N)=O)c3c2C(=O)N(c2ccc(N4CCCCC4=O)cc2)CC3)cc1` [Apixaban, 1-(4-methoxyphenyl)-7-oxo-6-(4-(2-oxopiperidin-1-yl)phenyl)-4,5,6,7-tetrahydro-1H-pyrazolo[3,4-c]pyridine-3-carboxamide], the solubility entry is “poorly soluble”.
